# Active and inactive are the calls of the source.
# Experiments:
# HEK293 [1] = assay: cells; type: functional, cell-based; conditions: Homo sapiens
# [2] = Counterscreen for AddAB inhibitors: absorbance-based bacterial cell-based high throughput dose response assay for inhibitors of bacterial viability. [Related pubchem assays (depositor defined):AID435030, AID449728, AID449731, AID488942, AID488955, AID488956]; type: functional
# Exodeoxyribonuclease V = Exodeoxyribonuclease V (Escherichia coli (strain K12), UniProt P04993+P07648+P08394); assay: RecBCD inhibition via phage-restricted bacterial growth – absorbance, V66 E. coli, mutant T4 phage, counter-screen for AddAB inhibitor project, dose response (AID 492957); type: functional, cell-based, Escherichia coli str. K-12 substr. MG1655
# Exodeoxyribonuclease V, sequence (P04993 whole entry): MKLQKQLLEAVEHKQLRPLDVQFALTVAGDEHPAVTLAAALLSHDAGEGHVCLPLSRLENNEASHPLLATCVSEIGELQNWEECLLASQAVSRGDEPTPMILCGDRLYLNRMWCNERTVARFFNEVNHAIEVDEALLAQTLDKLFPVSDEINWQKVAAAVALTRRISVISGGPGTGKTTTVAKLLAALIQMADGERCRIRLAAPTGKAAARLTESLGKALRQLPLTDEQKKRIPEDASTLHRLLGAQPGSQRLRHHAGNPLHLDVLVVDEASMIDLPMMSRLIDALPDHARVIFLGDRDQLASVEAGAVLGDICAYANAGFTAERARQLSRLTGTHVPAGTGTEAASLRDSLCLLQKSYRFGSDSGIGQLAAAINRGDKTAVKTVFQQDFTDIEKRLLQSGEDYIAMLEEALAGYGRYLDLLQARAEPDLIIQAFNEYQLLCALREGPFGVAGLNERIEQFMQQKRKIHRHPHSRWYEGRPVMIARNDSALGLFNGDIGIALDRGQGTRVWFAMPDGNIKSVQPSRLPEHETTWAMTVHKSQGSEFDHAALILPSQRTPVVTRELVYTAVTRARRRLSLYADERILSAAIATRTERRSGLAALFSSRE
# Exodeoxyribonuclease V, sequence (P07648 whole entry): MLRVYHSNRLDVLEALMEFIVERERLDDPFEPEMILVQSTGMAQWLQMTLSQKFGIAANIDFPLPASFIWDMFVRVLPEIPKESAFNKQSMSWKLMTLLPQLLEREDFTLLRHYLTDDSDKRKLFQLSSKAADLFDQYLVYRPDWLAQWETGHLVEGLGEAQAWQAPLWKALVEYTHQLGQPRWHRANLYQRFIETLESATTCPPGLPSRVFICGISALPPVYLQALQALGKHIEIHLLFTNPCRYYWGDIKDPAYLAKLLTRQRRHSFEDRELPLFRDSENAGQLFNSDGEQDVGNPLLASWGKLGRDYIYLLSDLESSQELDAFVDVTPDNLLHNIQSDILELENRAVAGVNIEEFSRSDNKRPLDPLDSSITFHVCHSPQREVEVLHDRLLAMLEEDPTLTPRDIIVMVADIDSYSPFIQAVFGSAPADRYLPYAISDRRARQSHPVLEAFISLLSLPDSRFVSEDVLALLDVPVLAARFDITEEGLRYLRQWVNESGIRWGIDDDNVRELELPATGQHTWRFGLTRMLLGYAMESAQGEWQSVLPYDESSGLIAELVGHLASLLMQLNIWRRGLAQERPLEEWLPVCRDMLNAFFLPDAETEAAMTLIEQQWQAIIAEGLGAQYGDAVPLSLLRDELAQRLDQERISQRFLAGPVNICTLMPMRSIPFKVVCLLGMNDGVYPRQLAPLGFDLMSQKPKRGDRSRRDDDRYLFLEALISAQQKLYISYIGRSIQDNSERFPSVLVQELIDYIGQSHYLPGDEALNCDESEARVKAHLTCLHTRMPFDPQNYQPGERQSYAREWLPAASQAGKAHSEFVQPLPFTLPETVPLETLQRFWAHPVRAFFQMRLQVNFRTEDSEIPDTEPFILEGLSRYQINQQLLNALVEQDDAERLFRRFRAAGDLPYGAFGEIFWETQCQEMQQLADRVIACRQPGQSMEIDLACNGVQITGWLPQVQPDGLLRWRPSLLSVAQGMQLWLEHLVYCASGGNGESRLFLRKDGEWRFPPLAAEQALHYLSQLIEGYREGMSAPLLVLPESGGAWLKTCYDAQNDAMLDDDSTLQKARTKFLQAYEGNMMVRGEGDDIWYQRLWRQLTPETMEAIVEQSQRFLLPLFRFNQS
# Exodeoxyribonuclease V, sequence (P08394 whole entry): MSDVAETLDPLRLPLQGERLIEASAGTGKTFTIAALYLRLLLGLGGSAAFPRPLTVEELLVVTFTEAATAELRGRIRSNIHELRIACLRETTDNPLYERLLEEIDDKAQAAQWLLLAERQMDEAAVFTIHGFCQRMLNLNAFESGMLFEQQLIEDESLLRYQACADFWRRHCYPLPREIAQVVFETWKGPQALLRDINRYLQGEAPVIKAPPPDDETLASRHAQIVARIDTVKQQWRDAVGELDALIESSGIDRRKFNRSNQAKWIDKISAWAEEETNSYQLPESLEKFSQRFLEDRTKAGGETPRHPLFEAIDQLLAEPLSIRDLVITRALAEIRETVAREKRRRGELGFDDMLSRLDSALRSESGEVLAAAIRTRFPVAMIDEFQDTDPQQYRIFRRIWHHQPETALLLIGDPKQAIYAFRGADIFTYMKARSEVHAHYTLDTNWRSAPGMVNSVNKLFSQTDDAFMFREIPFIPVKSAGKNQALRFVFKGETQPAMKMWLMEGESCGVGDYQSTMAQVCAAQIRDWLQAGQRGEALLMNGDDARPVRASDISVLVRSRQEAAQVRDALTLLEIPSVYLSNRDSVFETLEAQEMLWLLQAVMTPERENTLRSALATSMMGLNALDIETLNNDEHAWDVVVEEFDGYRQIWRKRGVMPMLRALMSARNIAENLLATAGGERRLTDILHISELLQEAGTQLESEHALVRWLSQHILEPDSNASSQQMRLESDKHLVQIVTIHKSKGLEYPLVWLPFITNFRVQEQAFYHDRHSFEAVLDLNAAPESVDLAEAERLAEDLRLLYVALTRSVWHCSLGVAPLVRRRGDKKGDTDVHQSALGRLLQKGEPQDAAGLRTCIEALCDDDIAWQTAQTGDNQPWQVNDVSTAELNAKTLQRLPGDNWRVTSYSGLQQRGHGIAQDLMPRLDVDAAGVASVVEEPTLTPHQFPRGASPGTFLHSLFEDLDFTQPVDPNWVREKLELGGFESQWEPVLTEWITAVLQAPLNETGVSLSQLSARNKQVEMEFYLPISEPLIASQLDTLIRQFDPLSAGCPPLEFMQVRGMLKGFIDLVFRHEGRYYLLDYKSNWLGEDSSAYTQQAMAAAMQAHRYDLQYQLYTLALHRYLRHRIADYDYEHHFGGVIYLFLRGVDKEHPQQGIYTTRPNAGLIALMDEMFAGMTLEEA
# cells = type: functional
# HEK293 [3] = assay: cells; type: functional, cell-based; conditions: Homo sapiens; remark: listed apart in the source
# HEK293 [4] = assay: inhibition of NOD1-driven NF-kB reporter – cell-based, luminescence, uHTS, primary screen (AID 1578); type: functional; conditions: Homo sapiens
# [5] = target: Nucleotide-binding oligomerization domain-containing protein 2 (Homo sapiens, UniProt Q9HC29); assay: inhibition of NOD2-driven NF-kB reporter – cell-based, luminescence, uHTS, HEK293 (AID 1566); type: functional
# Nucleotide-binding oligomerization domain-containing protein 2, sequence (Q9HC29 whole entry, the tested form may be a part): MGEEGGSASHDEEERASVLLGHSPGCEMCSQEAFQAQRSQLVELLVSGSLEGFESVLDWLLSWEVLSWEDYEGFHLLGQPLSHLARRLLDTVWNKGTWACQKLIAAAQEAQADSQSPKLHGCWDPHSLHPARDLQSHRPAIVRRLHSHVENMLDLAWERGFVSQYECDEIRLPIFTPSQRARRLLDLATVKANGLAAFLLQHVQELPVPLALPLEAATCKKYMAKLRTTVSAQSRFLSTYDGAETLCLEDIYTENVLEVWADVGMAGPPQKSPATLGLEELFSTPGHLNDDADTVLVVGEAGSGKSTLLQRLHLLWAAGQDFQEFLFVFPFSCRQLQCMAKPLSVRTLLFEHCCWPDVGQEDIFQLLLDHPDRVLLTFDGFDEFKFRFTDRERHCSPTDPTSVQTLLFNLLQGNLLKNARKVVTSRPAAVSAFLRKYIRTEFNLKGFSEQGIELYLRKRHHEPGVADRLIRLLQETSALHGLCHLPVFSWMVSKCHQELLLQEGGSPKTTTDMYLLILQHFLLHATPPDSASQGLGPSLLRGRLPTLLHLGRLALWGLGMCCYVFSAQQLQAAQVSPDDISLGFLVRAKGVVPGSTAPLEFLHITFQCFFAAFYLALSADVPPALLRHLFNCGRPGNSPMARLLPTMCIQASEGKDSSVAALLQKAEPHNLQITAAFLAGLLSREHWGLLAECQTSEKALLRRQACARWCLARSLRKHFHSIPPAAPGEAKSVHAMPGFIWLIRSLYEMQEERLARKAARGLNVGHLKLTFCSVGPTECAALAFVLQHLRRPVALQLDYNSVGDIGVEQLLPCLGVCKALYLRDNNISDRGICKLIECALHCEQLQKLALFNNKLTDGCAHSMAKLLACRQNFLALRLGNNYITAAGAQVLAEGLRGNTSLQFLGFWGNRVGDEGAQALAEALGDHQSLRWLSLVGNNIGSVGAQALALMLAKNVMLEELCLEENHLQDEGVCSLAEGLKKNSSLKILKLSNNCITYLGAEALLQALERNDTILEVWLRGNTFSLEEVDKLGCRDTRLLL
# HEK293 [6] = assay: NOD2 signaling inhibitors in MDP-stimulated cells, cell-based, uHTS, luminescence (AID 2001); type: functional; conditions: Homo sapiens
# [7] = THP-1 cell cytotoxicity, dose response, cytotoxicity control for non-replicating M. tuberculosis project (AID 489025); type: functional
# HEK293 [8] = assay: cells; type: functional, cell-based; conditions: Homo sapiens; remark: listed apart in the source
# [9] = target: T1, Tyrosine-protein phosphatase non-receptor type 7 (Homo sapiens, UniProt P35236); type: functional
# T1 sequence (P35236 whole entry): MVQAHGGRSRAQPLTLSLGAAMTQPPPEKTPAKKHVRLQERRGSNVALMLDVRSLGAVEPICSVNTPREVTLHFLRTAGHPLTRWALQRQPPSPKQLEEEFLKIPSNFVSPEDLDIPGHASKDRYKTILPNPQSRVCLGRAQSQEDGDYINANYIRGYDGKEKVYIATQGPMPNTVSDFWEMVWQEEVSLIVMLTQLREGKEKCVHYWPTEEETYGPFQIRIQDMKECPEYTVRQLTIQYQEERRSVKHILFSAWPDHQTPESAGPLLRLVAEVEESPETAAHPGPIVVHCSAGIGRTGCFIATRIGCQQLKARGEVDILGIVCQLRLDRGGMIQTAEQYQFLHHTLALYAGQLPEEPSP
# [10] = target: T2, Tyrosine-protein phosphatase non-receptor type 22 (Homo sapiens, UniProt Q9Y2R2); type: functional
# T2 sequence (Q9Y2R2 whole entry): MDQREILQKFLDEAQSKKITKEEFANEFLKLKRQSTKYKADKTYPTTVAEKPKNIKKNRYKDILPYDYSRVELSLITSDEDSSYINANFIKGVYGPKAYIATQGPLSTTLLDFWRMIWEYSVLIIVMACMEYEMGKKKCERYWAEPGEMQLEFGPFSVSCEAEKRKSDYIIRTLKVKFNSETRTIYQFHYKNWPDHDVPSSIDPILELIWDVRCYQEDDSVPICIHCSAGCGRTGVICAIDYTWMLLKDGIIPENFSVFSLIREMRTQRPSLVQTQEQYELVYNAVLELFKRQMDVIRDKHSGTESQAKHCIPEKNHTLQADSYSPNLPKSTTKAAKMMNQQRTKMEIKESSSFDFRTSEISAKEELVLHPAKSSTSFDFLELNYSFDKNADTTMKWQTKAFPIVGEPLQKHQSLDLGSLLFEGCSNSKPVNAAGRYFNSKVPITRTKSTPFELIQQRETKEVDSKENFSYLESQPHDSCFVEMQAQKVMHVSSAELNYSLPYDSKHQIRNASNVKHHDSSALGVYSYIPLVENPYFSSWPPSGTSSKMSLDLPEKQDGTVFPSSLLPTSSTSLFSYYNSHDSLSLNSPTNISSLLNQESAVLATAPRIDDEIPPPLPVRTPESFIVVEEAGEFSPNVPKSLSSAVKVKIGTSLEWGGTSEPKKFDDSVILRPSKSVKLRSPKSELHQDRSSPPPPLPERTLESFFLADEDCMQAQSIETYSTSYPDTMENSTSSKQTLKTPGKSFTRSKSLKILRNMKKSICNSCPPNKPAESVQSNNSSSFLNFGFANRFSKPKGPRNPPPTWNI
# Hexokinase-1 = target: T3, Hexokinase-1 (Homo sapiens, UniProt P19367); assay: HK1 enzyme activation by HKDC1 hits – biochemical, selectivity assay for HKDC1 activator project, dose response (AID 504762); type: functional
# T3 sequence (P19367 whole entry): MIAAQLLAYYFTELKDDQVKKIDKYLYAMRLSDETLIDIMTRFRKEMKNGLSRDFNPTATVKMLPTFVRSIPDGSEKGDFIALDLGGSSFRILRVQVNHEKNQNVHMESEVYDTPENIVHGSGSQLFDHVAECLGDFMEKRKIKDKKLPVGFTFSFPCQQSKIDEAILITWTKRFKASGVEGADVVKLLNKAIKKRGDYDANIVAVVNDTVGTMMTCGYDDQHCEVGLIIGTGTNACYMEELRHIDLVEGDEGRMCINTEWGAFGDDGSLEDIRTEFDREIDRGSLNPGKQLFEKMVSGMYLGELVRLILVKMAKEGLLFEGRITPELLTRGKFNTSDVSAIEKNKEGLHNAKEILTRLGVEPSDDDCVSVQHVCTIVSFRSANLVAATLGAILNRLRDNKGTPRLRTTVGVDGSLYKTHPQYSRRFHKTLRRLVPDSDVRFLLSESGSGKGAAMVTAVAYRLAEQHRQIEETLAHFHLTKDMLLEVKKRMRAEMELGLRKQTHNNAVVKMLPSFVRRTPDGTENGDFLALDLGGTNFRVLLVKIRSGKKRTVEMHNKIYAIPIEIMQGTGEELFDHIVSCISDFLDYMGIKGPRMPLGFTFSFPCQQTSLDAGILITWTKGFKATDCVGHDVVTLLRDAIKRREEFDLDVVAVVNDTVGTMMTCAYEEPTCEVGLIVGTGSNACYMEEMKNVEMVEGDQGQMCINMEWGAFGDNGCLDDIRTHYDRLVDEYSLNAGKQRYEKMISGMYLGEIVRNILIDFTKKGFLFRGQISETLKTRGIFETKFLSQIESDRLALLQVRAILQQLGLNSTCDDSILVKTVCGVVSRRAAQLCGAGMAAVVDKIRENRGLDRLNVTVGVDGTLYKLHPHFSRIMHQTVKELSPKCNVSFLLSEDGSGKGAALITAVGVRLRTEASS
# [11] = target: T2, Tyrosine-protein phosphatase non-receptor type 22; type: functional; remark: listed apart in the source
# Hexokinase HKDC1 = target: T4, Hexokinase HKDC1 (Homo sapiens, UniProt Q2TB90); assay: activation of HKDC1 glucose phosphorylation – biochemical, W721R variant, dose response (AID 504730); type: functional
# T4 sequence (Q2TB90 whole entry): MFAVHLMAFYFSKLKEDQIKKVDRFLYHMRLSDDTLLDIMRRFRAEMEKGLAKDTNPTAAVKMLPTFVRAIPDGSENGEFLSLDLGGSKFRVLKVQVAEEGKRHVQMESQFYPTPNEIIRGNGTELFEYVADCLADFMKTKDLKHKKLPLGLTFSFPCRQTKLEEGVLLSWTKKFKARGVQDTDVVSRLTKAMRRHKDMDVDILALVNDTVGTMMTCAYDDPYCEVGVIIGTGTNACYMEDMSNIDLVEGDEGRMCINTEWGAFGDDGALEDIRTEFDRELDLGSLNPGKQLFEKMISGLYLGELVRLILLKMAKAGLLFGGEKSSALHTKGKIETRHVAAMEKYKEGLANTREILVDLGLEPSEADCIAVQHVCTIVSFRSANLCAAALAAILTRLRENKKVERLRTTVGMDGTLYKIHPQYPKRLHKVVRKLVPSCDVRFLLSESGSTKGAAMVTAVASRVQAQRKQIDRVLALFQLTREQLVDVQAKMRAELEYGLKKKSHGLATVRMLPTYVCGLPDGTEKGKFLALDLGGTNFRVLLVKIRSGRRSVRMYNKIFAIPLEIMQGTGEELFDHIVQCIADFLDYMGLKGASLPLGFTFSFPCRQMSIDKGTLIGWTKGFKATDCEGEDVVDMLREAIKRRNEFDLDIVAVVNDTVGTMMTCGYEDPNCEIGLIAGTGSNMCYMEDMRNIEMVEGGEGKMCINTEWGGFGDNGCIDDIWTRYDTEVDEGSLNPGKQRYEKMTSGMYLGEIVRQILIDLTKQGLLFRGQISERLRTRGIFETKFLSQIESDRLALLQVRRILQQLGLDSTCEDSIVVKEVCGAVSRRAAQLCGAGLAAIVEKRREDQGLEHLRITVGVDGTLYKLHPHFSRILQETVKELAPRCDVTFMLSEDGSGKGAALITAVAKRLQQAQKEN
# Beta-galactosidase = Beta-galactosidase (Escherichia coli, UniProt Q8VNN2); type: functional
# [12] = target: T5, Delta-type opioid receptor (Homo sapiens, UniProt P41143); assay: HTS Image-Based Screen for Agonists of the DOR Receptor. [Related pubchem assays (depositor defined):AID1777, AID1786, AID2133]; type: functional
# T5 sequence (P41143 whole entry): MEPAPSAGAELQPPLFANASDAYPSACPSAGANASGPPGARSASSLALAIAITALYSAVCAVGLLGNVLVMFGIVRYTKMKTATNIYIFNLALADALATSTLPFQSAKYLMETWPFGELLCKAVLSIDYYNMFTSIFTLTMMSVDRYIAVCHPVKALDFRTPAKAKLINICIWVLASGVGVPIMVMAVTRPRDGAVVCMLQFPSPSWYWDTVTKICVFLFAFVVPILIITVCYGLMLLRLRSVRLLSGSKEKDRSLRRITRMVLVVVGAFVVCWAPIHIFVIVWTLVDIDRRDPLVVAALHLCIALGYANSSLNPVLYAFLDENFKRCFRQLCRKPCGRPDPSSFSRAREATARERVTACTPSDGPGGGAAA
# [13] = target: T6, Kappa-type opioid receptor (Homo sapiens, UniProt P41145); type: functional
# T6 sequence (P41145 whole entry): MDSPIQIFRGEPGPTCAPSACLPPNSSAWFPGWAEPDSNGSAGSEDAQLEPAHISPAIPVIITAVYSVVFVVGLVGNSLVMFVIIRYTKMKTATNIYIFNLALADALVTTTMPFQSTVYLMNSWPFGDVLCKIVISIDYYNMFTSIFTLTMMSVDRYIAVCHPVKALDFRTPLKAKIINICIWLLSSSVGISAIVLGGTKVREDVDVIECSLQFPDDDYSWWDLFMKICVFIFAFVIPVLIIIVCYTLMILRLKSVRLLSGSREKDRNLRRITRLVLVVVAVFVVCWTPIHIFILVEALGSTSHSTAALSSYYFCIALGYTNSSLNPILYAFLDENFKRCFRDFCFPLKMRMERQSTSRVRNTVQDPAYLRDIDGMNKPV
# [14] = viability of uninfected HEp-2 cells – cell-based, HTS, cytotoxicity control for RSV inhibitor project, dose response (AID 2410); type: functional; conditions: human respiratory syncytial virus
# [15] = target: T6, Kappa-type opioid receptor; type: functional; remark: listed apart in the source
# [16] = target: T5, Delta-type opioid receptor; assay: HTS Image-Based Screen for Antagonists of the DOR Receptor. [Related pubchem assays (depositor defined):AID1777, AID1785, AID1786, AID2133]; type: functional
# Mu-type opioid receptor = Mu-type opioid receptor (Homo sapiens, UniProt P35372); assay: HTS Image-Based Screen for Agonists of the MOR Receptor. [Related pubchem assays (depositor defined):AID1777, AID1785, AID1786, AID2133]; type: functional;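 further: imaging of beta-arrestin GFP recruitment into spots after receptor activation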
# Cytochrome P450 1A2 = target: T7, Cytochrome P450 1A2 (Homo sapiens, UniProt P05177);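 further: PubChem cytochrome P450 panel assay, CYP1A2 panel member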
# T7 sequence (P05177 whole entry): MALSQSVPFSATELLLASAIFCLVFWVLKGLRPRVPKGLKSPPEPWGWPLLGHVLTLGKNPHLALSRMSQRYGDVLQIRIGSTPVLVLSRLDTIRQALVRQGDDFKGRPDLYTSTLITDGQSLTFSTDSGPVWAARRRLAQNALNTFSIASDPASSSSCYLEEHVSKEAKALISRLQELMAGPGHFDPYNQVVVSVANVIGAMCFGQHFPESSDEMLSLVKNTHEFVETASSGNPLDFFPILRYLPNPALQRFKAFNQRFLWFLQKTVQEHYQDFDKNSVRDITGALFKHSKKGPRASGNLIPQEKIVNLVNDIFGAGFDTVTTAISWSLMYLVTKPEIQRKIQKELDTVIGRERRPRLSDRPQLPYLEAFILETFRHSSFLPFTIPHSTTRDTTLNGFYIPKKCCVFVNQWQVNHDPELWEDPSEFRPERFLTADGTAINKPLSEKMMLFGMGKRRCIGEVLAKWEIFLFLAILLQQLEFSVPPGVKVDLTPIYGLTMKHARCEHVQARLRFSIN
# [17] = target: T8, Mannose-6-phosphate isomerase (Homo sapiens, UniProt P34949); assay: phosphomannose isomerase inhibition – biochemical, fluorescence intensity, confirmation (AID 1535)
# T8 sequence (P34949 whole entry): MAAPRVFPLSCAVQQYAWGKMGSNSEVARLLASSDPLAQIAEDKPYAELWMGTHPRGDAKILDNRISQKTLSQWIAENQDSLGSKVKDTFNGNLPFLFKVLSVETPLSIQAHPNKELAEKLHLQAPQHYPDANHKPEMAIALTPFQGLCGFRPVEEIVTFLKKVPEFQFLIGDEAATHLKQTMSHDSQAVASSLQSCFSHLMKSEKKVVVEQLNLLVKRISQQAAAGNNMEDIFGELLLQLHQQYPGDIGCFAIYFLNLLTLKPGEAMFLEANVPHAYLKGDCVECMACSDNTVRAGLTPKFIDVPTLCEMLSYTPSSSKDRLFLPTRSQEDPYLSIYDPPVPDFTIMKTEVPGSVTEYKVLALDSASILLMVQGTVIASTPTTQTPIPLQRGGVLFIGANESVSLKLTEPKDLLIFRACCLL
# Phosphomannomutase 2 = Phosphomannomutase 2 (Homo sapiens, UniProt O15305); assay: Counter screen SAR assay for PMM2 inhibitors via a fluorescence intensity assay. [Related pubchem assays (depositor defined):AID1545, AID1574]
# Phosphomannomutase 2, sequence (O15305 whole entry): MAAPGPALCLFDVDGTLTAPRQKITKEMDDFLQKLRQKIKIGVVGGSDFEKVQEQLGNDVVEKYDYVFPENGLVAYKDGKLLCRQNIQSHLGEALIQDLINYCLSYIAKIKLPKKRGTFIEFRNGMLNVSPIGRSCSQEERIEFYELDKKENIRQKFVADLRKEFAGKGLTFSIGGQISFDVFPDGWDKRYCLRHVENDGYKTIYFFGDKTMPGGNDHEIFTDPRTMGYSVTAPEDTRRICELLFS
smiles,measurement,setting,value
Nc1nonc1C(=O)N/N=C/c1ccc([N+](=O)[O-])o1,IC50,HEK293 [1],> 20 µM (inactive)
same,IC50,[2],14.9 µM (inactive)
same,IC50,Exodeoxyribonuclease V,56.4 µM (inactive)
same,IC50,cells,7.01 µM (active)
same,IC50,HEK293 [3],> 20 µM (inactive)
same,EC50,HEK293 [4],8.5 µM (active)
same,EC50,[5],5.54 µM (active)
same,IC50,HEK293 [6],> 20 µM (inactive)
same,CC50,[7],> 40 µM (active)
same,IC50,HEK293 [8],> 20 µM (inactive)
COc1cc(SC#N)ccc1/N=C/c1c(C)[nH]n(-c2ccc(Cl)cc2)c1=O,IC50,[9],> 79.4 µM (inactive)
same,IC50,[10],> 79.4 µM (inactive)
same,EC50,Hexokinase-1,> 80 µM (inactive)
same,IC50,[11],> 79.4 µM (inactive)
same,EC50,Hexokinase HKDC1,> 80 µM (inactive)
Nc1c2c(nc3sc4c(c13)CCCC4)CCCC2,EC50,Beta-galactosidase,> 31.5 µM (inactive)
same,EC50,[12],> 32 µM (inactive)
same,IC50,[13],6.99 µM
same,CC50,[14],25.7 µM (active)
same,IC50,[15],9.82 µM (active)
same,IC50,[16],> 32 µM (inactive)
same,EC50,Mu-type opioid receptor,> 32 µM (inactive)
N[C@H]1[C@@H](C(=O)O)[C@H]2C=C[C@H]1C2.O=S(=O)(O)c1ccccc1,AC50,Cytochrome P450 1A2,inactive
CCc1cc(CC)c(/N=c2\ssnc2Cl)c(CC)c1,IC50,[17],> 100 µM (inactive)
same,IC50,Phosphomannomutase 2,> 100 µM (inactive)
